Results published in paper PMC4059180 (Journal of medicinal chemistry, 2013).

What was measured:
[1] = tested on: mFAP transfected HEK293 cells; assay: CellTiter-Blue cell viability assay; assay type: cell-based; details: 48 h
tumor growth = details: mice inoculated with those same cells; cited from earlier work
several tumor cell lines = details: cited from earlier work
FAP = target: T1, FAP (Homo sapiens, UniProt Q12884); assay: Enzyme kinetics; assay type: biochemical; details: highest concentrations tested
T1 sequence (Q12884 1-760): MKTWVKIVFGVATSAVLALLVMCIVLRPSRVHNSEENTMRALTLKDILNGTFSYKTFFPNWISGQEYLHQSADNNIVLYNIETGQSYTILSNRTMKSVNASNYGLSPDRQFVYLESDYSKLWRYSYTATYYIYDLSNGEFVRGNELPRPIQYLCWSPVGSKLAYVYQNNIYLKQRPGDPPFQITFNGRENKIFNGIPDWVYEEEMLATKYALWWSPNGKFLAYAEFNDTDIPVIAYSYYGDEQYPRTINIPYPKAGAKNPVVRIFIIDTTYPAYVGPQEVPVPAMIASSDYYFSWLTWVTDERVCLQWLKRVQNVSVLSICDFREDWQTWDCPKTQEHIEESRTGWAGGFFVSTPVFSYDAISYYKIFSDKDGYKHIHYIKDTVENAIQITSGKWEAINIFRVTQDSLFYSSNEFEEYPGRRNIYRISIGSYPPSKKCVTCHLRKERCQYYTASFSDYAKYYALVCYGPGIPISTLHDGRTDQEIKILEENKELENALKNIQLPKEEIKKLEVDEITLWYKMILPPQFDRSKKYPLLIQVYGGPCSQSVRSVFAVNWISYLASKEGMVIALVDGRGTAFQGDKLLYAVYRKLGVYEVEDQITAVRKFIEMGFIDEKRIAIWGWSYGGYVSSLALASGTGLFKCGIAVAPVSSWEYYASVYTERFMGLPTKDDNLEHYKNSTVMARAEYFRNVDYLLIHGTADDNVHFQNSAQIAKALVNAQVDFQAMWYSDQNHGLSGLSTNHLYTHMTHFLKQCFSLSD

cells = cells in vitro and in vivo; cited from earlier work

Compound: C[C@@H](NC(=O)c1ccncc1)C(=O)N1CCC[C@H]1B(O)O [Compound 6, N-(Pyridine-4-carbonyl)-(R)-alaninyl-(R)-boroproline]
- cytotoxicity [1]: No cytotoxicity was observed

Compound: CC(C)[C@H](N)C(=O)N1CCC[C@H]1B(O)O [Compound 20, (S)-Valinyl-(R)-boroproline]
- tumor growth in vivo (tumor growth): attenuating tumor growth in vivo
- cytotoxicity (several tumor cell lines): lack cytotoxicity against several tumor cell lines

Compound: CC(C)[C@H](NC(=O)c1cccnc1)C(=O)N1CCC[C@H]1B(O)O [Compound 22, N-(Pyridine-3-carbonyl)-(R)-valinyl-(R)-boroproline]
- inhibition of FAP in kinetic analysis (FAP): does not inhibit FAP at the highest concentrations tested

Compound: CC(C)C[C@H](NC(=O)[C@H](Cc1ccccc1)NC(=O)c1cnccn1)B(O)O [bortezomib, Bortezomib]
- cytotoxicity (cells): cytotoxic
